Measurements taken from patent US20240199702A1, “CELL-PERMEABLE CYCLIC PEPTIDES AND USES THEREOF” (Unnatural Products Inc., priority 2021, published 2024).
Where a SMILES comes first, the peptide text is derived from it. [ ]: non-standard residue; d: D form. The star is where a group is joined. ξ: configuration not given here. Ala(thiazol-5-yl) = N[C@@H](Cc1cncs1)C(=O)O; Ala(4-thiazolyl) = N[C@@H](Cc1cscn1)C(=O)O; NMePhe(4-F) = CN[C@@H](Cc1ccc(F)cc1)C(=O)O; Phe(4-Cl) = N[C@@H](Cc1ccc(Cl)cc1)C(=O)O; Phe(4-F) = N[C@@H](Cc1ccc(F)cc1)C(=O)O; NMeF = CN[C@@H](Cc1ccccc1)C(=O)O; NMeNva = CCC[C@H](NC)C(=O)O; NMeV = CN[C@H](C(=O)O)C(C)C; hSer = N[C@@H](CCO)C(=O)O; NMeA = CN[C@@H](C)C(=O)O; dNMeA = CN[C@H](C)C(=O)O; ξNMeV = CNC(C(=O)O)C(C)C; Aze = O=C(O)[C@@H]1CCN1; NBuGly = CCCCNCC(=O)O; Butyryl = CCCC(=O)*; Nme = COCCNCC(=O)O; NEtG = CCNCC(=O)O; Sar = CNCC(=O)O

Key:
[1] = test system: MOLM-13 cells; assay: Cellular Fluorescence Assay 1 (CellTiter-Glo, 72 hours); type: cell-based
Procedure: Cellular Fluorescence Assay 1
(§1) MOLM-13 cells were grown in suspension in T75 flasks in RPMI medium with 10% fetal bovine serum (FBS) at 37° C. with 5% CO2. 40 μL ofMOLM-13 cells were plated into columns 1-22 of white, flat bottom, 384 well plates at a density of 1,000 cells per well in RPMI with 10% FBS. Columns 23 and 24 were filled with 40 μL of media as a positive control. 100 nL of compounds dissolved in DMSO were pin transferred into columns 3-22 of the 384 well plate. Columns 1 and 2 served as negative control wells. Plates were incubated for 72 hours at 37° C. with 5% CO2. After incubation, the cells were given 10 μL of CellTiter-Glo® (Promega®). Luminescence was read on a Molecular Devices SpectraMax i3x plate reader.

[2] = target: T1, Human MDM4 (HDM4) 1-114 (Homo sapiens, UniProt O15151); assay: Fluorescence Polarization Assay 2 (MDM4/p53 peptide); type: binding; details: FAM-labeled p53 peptide, 60 minutes
T1 construct: Human MDM4 (HDM4) 1-114
T1 sequence (O15151 1-114): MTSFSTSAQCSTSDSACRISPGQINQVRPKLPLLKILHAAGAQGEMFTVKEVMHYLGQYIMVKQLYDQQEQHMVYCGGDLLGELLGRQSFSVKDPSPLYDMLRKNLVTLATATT
Procedure: Fluorescence Polarization Assay 2
(§2) Human MDM4 (HDM4) 1-114 (20 μL) and FAM-labeled GGTSFAEYWNLLSP —NH2, 20 nM and 5 nM respectively in 10 mM Tris, 50 mM NaCl, 0.01% Tween20, and 1 mM DTT at pH 7.4 were dispensed into an opaque, black, 384 well plate. Compounds dissolved in DMSO were pin transferred (−100-200 nL) to the 384 well plate containing the MDM4/p53 solution. After incubation for 60 minutes, the fluorescence polarization was read on a Molecular Devices SpectraMax plate reader equipped with a Fluorescein FP cartridge. In addition to probe alone (positive control) and probe/MDM4 (negative control), a titration of linear p53(18-26) was included on every plate as an additional control. IC50 values were fit using either Prism or Collaborative Drug Discovery.

[3] = target: T2, Human MDM2 (HDM2) 1-116 (Homo sapiens, UniProt Q00987); assay: Fluorescence Polarization Assay 1 (MDM2/p53 peptide); type: binding; details: FAM-labeled p53 peptide, 60 minutes
T2 construct: Human MDM2 (HDM2) 1-116
T2 sequence (Q00987 1-116): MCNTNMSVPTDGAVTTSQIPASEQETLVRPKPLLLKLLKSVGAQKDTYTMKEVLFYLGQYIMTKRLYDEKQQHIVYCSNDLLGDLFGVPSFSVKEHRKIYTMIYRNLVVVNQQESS
Procedure: Fluorescence Polarization Assay 1
as §2, with “MDM2 (HDM2) 1-116” for “MDM4 (HDM4) 1-114”, “GGTSFAEYWNLLSP-NH2, 10” for “GGTSFAEYWNLLSP —NH2, 20”, “(˜100-200” for “(−100-200”, “MDM2/p53” for “MDM4/p53”, “probe/MDM2” for “probe/MDM4”

[4] = test system: MV4-11 cells; assay: Cellular Fluorescence Assay 2 (CellTiter-Glo, 72 hours); type: cell-based
Procedure: Cellular Fluorescence Assay 2
as §1, with “MV4-11” for “MOLM-13”, “of MV4-11” for “ofMOLM-13”

[5] = test system: WaGa cells; assay: Cellular Fluorescence Assay 3 (CellTiter-Glo, 72 hours); type: cell-based
Procedure: Cellular Fluorescence Assay 3
as §1, with “WaGa” for “MOLM-13”, “of WaGa” for “ofMOLM-13”

[6] = test system: MKL-1 cells; assay: Cellular Fluorescence Assay 4 (CellTiter-Glo, 72 hours); type: cell-based
Procedure: Cellular Fluorescence Assay 4
as §1, with “MKL-1” for “MOLM-13”, “MKL-1” for “ofMOLM-13”, “reader. In some embodiments, the cyclic peptide described herein is a cyclic peptide depicted in Table 1: […]” for “reader.”

IC50 [1] [nM] | IC50 [2] [nM] | IC50 [3] [nM] | IC50 [4] [nM] | SMILES | IC50 [5] [nM] | IC50 [6] [nM]
50 to 100 | 50 to 100 | 25 to 50 | < 50 | CCCC(=O)O[C@H](C)[C@@H]1NC(=O)[C@H](Cc2ccc(F)cc2)NC(=O)CN(CCOC)C(=O)[C@@H](C)N(C)C(=O)[C@H](Cc2cscn2)NC(=O)[C@H](C)N(C)C(=O)[C@H](CCOC)NC(=O)[C@H]2CCCN2C(=O)[C@H](Cc2ccccc2)N(C)C(=O)[C@H](Cc2ccc(Cl)cc2)NC1=O [compound 6] (cyclo([Ala(4-thiazolyl)][dNMeA][Nme][Phe(4-F)]T(Butyryl)[Phe(4-Cl)][NMeF][dP][hSer](Me)[NMeA])) | < 50 | < 500
≥ 150 | 50 to 100 | 50 to 100 | ≥ 150 | COCC[C@@H]1NC(=O)[C@H]2CCCN2C(=O)[C@H](Cc2ccc(F)cc2)N(C)C(=O)[C@H](Cc2ccc(Cl)cc2)NC(=O)[C@@H]2CCN2C(=O)[C@H](Cc2ccc(F)cc2)NC(=O)CN(CCOC)C(=O)[C@@H](C)N(C)C(=O)[C@H](Cc2cscn2)NC(=O)[C@@H]2CCCN2C1=O [compound 21] (cyclo([Ala(4-thiazolyl)][dNMeA][Nme][Phe(4-F)][Aze][Phe(4-Cl)][NMePhe(4-F)][dP][hSer](Me)P)) | ≥ 150 | 1000 to 2000
≥ 150 | 25 to 50 | 25 to 50 | 50 to 100 | COCC[C@@H]1NC(=O)[C@H]2CCCN2C(=O)[C@H](Cc2ccc(F)cc2)N(C)C(=O)[C@H](Cc2ccc(Cl)cc2)NC(=O)[C@@H]2CCN2C(=O)[C@H](Cc2ccc(F)cc2)NC(=O)CN(CCOC)C(=O)[C@@H](C)N(C)C(=O)[C@H](Cc2cscn2)NC(=O)[C@H](C(C)C)N(C)C1=O [compound 22] (cyclo([Ala(4-thiazolyl)][dNMeA][Nme][Phe(4-F)][Aze][Phe(4-Cl)][NMePhe(4-F)][dP][hSer](Me)[NMeV])) | 50 to 100 | < 500
≥ 150 | 50 to 100 | 50 to 100 | ≥ 150 | COCC[C@@H]1NC(=O)[C@H]2CCCN2C(=O)[C@H](Cc2ccc(F)cc2)N(C)C(=O)[C@H](Cc2ccc(Cl)cc2)NC(=O)[C@@H]2CCN2C(=O)[C@H](Cc2ccc(F)cc2)NC(=O)CN(CCOC)C(=O)[C@@H](C)N(C)C(=O)[C@H](Cc2cscn2)NC(=O)CN(C)C1=O [compound 23] (cyclo([Ala(4-thiazolyl)][dNMeA][Nme][Phe(4-F)][Aze][Phe(4-Cl)][NMePhe(4-F)][dP][hSer](Me)[Sar])) | ≥ 150 | ≥ 2000
≥ 150 | ≥ 100 | 25 to 50 | ≥ 150 | CCCCN1CC(=O)N[C@@H](Cc2ccc(F)cc2)C(=O)N(C)C(C(C)C)C(=O)N[C@@H](Cc2ccc(Cl)cc2)C(=O)N(C)[C@@H](Cc2ccccc2)C(=O)N2CCC[C@@H]2C(=O)N[C@@H](CCOC)C(=O)N(C)[C@@H](C)C(=O)N[C@@H](Cc2cncs2)C(=O)N(C)[C@H](C)C1=O (stereo partly drawn) [compound 24] (cyclo([NMeA][Ala(thiazol-5-yl)][dNMeA][NBuGly][Phe(4-F)][ξNMeV][Phe(4-Cl)][NMeF][dP][hSer](Me))) | ≥ 150 | ≥ 2000
≥ 150 | ≥ 100 | < 25 | 100 to 150 | CCN1CC(=O)N[C@@H](Cc2ccc(F)cc2)C(=O)N(C)[C@@H](C(C)C)C(=O)N[C@@H](Cc2ccc(Cl)cc2)C(=O)N(C)[C@@H](Cc2ccccc2)C(=O)N2CCC[C@@H]2C(=O)N[C@@H](CCOC)C(=O)N(C)[C@@H](C)C(=O)N[C@@H](Cc2cncs2)C(=O)N(C)[C@H](C)C1=O [compound 25] (cyclo([NEtG][Phe(4-F)][NMeV][Phe(4-Cl)][NMeF][dP][hSer](Me)[NMeA][Ala(thiazol-5-yl)][dNMeA])) | ≥ 150 | 500 to 1000
100 to 150 | 50 to 100 | < 25 | 50 to 100 | COCC[C@@H]1NC(=O)[C@H]2CCCN2C(=O)[C@H](Cc2ccccc2)N(C)C(=O)[C@H](Cc2ccc(Cl)cc2)NC(=O)[C@H](C(C)C)N(C)C(=O)[C@H](Cc2ccc(F)cc2)NC(=O)[C@H](C)N(C)C(=O)[C@@H](C)N(C)C(=O)[C@H](Cc2cncs2)NC(=O)[C@H](C)N(C)C1=O [compound 26] (cyclo([NMeA][Phe(4-F)][NMeV][Phe(4-Cl)][NMeF][dP][hSer](Me)[NMeA][Ala(thiazol-5-yl)][dNMeA])) | 100 to 150 | 500 to 1000
≥ 150 | ≥ 100 | < 25 | 100 to 150 | COCC[C@@H]1NC(=O)[C@H]2CCCN2C(=O)[C@H](Cc2ccccc2)N(C)C(=O)[C@H](Cc2ccc(Cl)cc2)NC(=O)[C@H](C(C)C)N(C)C(=O)[C@H](Cc2ccc(F)cc2)NC(=O)CN(C)C(=O)[C@@H](C)N(C)C(=O)[C@H](Cc2cncs2)NC(=O)[C@H](C)N(C)C1=O [compound 27] (cyclo([NMeA][Ala(thiazol-5-yl)][dNMeA][Sar][Phe(4-F)][NMeV][Phe(4-Cl)][NMeF][dP][hSer](Me))) | 100 to 150 | 500 to 1000
≥ 150 | ≥ 100 | < 25 | 100 to 150 | CCC[C@H]1C(=O)N[C@@H](Cc2ccc(F)cc2)C(=O)N(C)[C@@H](C(C)C)C(=O)N[C@@H](Cc2ccc(Cl)cc2)C(=O)N(C)[C@@H](Cc2ccccc2)C(=O)N2CCC[C@@H]2C(=O)N[C@@H](CCOC)C(=O)N(C)[C@@H](C)C(=O)N[C@@H](Cc2cncs2)C(=O)N(C)[C@H](C)C(=O)N1C [compound 28] (cyclo([NMeA][Ala(thiazol-5-yl)][dNMeA][NMeNva][Phe(4-F)][NMeV][Phe(4-Cl)][NMeF][dP][hSer](Me))) | ≥ 150 | 1000 to 2000
